The target of assay [1] is FAD-linked sulfhydryl oxidase ALR (Homo sapiens, UniProt P55789). As to the kind of experiment: inhibitors of human ALR sulfhydryl oxidase, dose response, biochemical, H2O2 detection, luminescence, cherry-pick (AID 493248).
Assay [2] addresses Photoreceptor-specific nuclear receptor (Homo sapiens, UniProt Q9Y5X4). It counts as functional, cell-based.
Assay [3] has as its target T1, Methionyl-tRNA synthetase, putative (Trypanosoma brucei brucei, UniProt Q38C91).
T1 sequence (Q38C91 whole entry): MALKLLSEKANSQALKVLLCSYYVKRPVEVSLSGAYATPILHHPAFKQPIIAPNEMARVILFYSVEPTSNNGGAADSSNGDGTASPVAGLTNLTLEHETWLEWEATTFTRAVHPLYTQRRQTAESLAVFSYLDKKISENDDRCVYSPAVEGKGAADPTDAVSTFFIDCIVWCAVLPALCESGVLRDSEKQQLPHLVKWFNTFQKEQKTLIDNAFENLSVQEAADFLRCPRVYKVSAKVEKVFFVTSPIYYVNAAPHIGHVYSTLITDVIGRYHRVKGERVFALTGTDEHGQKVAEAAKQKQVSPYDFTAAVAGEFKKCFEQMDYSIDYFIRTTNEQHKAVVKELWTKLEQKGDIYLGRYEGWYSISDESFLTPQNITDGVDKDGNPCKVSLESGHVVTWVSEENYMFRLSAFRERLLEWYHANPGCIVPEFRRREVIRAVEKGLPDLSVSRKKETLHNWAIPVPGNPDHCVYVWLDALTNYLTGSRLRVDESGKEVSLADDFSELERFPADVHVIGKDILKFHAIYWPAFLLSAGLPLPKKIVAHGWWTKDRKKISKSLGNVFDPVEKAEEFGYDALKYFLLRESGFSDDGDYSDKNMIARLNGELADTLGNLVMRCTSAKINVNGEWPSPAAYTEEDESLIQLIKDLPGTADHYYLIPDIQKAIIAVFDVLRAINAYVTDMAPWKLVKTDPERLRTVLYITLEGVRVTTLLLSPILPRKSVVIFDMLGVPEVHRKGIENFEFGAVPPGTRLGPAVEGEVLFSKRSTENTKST
It counts as functional, Trypanosoma brucei brucei strain 927/4 GUTat10.1.

The target in assay [4] is T1, Methionyl-tRNA synthetase, putative. It counts as functional, Trypanosoma brucei brucei strain 927/4 GUTat10.1. This is another data set of the same source.
Assay [5] in a line: Counterscreen for inhibitors of Trypanosoma brucei methionyl tRNA synthetase (MetRS): Luminescence-based cell-based high throughput dose response assay to identify compounds that are cytotoxic to Jurkat human T lymphocyte cells. Format: functional.
The nature of assay [6]: inhibitors of intracellular T. cruzi replication, confirmation, NIH3T3 host cells, beta-gal luminescence (AID 2044).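 Further: intracellular parasites grown in NIH/3T3 mouse fibroblasts as host cells; luminescent beta-galactosidase reporter signal from transgenic T. cruzi replicating inside host cells; inhibitors lower the luminescence signal.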 Format: functional, cell-based.
Assay [7] in a line: cytotoxicity toward NIH3T3 fibroblasts, dose response, counter-screen, cell-based, ATP luminescence, mouse fibroblasts (AID 2010).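 Further: cells exposed to compound for about 90 hours before reading.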 Format: functional.
The nature of assay [8]: ADAM10 protease inhibitors, dose response, selectivity assay for ADAM17 exosite inhibitor project, biochemical, FRET peptide substrate, recombinant human ADAM10 (AID 743259).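 Further: ADAM10 enzyme cleaving a FRET peptide substrate.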
Assay [9] addresses Disintegrin and metalloproteinase domain-containing protein 17 (Homo sapiens, UniProt P78536). As to the kind of experiment: exosite inhibitors of ADAM17, dose response, biochemical (AID 743260).
Assay [10] can be described thus: ZM109 Env clade C HIV-1 fusion inhibitors, dose response, HeLa effector, CEM target cells, luciferase, cherry-pick (AID 652058). It counts as functional, cell-based.
A short description of assay [11]: inhibitors of clade B AD8 Env fusion, dose response, cell-based, cherry-pick (AID 652062).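 Further: luciferase signal from cell-cell fusion driven by HIV-1 clade B AD8 Env; potency is for inhibitors of fusion seen as a drop in luminescence.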 It counts as functional.
Assay [12] in a line: inhibitors of HIV Env-driven cell fusion, dose response, cherry-pick (AID 652057). Format: functional, cell-based.
A short description of assay [13]: CEM21 lymphoblast cell cytotoxicity, dose response, cytotoxicity control for viral fusion inhibitor project, CellTiter-Glo luminescence, cherry-picked (AID 652042).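 Further: potency for signal decrease meaning cytotoxicity.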 Format: functional, cell-based. A general note: Cellular ATP, detected with luciferase, serves as a proxy for viable cell number.
A short description of assay [14]: Luminescence-based cell-based high throughput dose response assay to identify activators of the DAF-12 from the parasite S. stercoralis (ssDAF-12). Format: functional.
The target of assay [15] is T2, Oxysterols receptor LXR-beta (Homo sapiens, UniProt P55055).
T2 sequence (P55055 whole entry): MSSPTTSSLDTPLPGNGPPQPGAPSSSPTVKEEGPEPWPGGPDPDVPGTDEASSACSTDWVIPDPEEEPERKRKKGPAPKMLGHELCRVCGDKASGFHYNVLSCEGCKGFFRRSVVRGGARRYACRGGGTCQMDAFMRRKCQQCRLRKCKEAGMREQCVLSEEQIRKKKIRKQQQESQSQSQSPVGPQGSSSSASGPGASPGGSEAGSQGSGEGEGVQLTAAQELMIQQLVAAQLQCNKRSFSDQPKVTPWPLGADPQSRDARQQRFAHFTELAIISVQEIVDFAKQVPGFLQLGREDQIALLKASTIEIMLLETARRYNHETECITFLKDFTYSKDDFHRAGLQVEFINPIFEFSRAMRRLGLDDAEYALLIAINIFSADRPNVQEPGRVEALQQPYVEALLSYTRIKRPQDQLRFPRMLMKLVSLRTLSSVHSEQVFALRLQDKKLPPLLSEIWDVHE
Kind of assay: LXR agonists, Gal4 luciferase reporter, dose response, counter-screen for ssDAF-12 agonist project, cell-based, luminescence, HEK293, S. stercoralis campaign (AID 720737). The following applies: read-out: IC50 (the source's name). It counts as functional. A general note: Reporter assays use an easily measured gene product as a stand-in for the process of interest.

Assay [16] concerns the target T3, Streptokinase A (Streptococcus pyogenes serotype M1, UniProt P10520).
T3 sequence (P10520 whole entry): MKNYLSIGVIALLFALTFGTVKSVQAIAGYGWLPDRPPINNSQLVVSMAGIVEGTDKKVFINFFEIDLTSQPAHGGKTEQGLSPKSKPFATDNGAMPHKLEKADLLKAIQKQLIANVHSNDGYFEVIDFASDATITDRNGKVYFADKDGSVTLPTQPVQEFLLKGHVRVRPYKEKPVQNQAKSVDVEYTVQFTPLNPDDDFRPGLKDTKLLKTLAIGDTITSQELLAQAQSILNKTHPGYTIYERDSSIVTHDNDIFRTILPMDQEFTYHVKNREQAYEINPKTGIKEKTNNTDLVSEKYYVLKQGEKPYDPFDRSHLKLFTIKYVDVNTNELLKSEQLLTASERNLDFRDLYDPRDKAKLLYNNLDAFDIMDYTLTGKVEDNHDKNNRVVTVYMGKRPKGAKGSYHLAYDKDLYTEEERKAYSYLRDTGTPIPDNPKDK
Kind of assay: S. pyogenes streptokinase expression inhibitors, potency, dose response, plasminogen activation absorbance, OD405 (AID 1914).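 Further: secreted streptokinase activity via plasminogen activation per viability signal from cell pellet.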 It counts as functional, Streptococcus pyogenes M1 GAS.

The subject of assay [17] is Streptococcus sp. 'group A'. Kind of assay: growth inhibition of control SK(-) GAS strain, dose response, counter-screen for streptokinase expression inhibitor project, luminescence, kanamycin, BacTiterGlo, confirmation (AID 1900). It counts as functional, organism-based.
Assay [18] has as its system Streptococcus. As to the kind of experiment: Group A Streptococcus viability loss, dose response, counter-screen for streptokinase expression inhibitor project, luminescence, BacTiterGlo (AID 1915).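 Further: potency for reduction of bacterial viability or growth.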 It counts as functional, organism-based. (Counterscreens check selectivity or assay interference.)
Assay [19] in a line: HEp-2 cell cytotoxicity, dose response, cytotoxicity control for RSV inhibitor project, HTS (AID 2410). It counts as functional. To be noted: human respiratory syncytial virus.
Assay [20] has as its target Paired box protein Pax-8 (Homo sapiens, UniProt Q06710). Kind of assay: inhibitors of PAX8-driven TPO luciferase reporter, dose response, RMG-I cells, cherry-pick (AID 687027).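 Further: luciferase reporter driven by Pax8 target thyroperoxidase promoter measured by SteadyGlo luminescence.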 It counts as functional, cell-based.
The nature of assay [21]: HepG2 cell cytotoxicity, dose response, cytotoxicity control, plate reader, dry powder samples (AID 1159569).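 Further: inhibitor potency with signal falling toward the positive control level.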 Format: functional, cell-based.
Assay [22] in a line: P. falciparum ATP4 D1247Y mutant growth inhibitors, dose response, NITD609-resistant line, SYBR Green, dry powder (AID 1159571).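 Further: parasites synchronized at ring stage by sorbitol before testing.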 Format: functional, cell-based.
Assay [23] is described as follows: P. falciparum Dd2 growth inhibitors, dose response, SYBR Green, cherry-picked samples (AID 1159567). It counts as functional, cell-based.
Assay [24] in a line: cytotoxicity in OVCAR8 ovarian cancer cells, dose response, PAX8 project, cell-based, plate reader, dry powder samples (AID 743197). It counts as functional. To be noted: OVCAR-8.
Assay [25] in a line: NIH:OVCAR-3 ovarian cancer cell cytotoxicity, dose response, PAX8 inhibitor project, plate reader, dry powder samples (AID 743044). Format: functional, cell-based.
Assay [26] can be described thus: IGROV1 ovarian cancer cell cytotoxicity, dose response, PAX8 inhibitor project, plate reader, dry powder samples (AID 743043). Format: functional, cell-based. To be noted: IGROV-1.
Assay [27] can be described thus: P. falciparum 3D7-ScDHODH growth inhibitors, dose response, SYBR Green, dry powder samples (AID 1159570).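 Further: parasite growth measured after 72 hours of compound exposure.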 It counts as functional, cell-based.
Assay [28] is described as follows: P. falciparum Dd2 growth inhibitors, dose response, SYBR Green, dry powder samples (AID 1159566).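 Further: potency for growth inhibition with lower SYBR green DNA signal.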 It counts as functional, cell-based.
The nature of assay [29]: A2780 ovarian cancer cell cytotoxicity, dose response, cytotoxicity control, plate reader, dry powder samples (AID 743046). Format: functional, cell-based.

One may read the AC50 as the concentration giving half of the maximal activity seen. Broadly, the IC50 is the concentration that gives 50% inhibition. For orientation: CC50 means the concentration that lowers cell viability or growth by half.

Molecules are shown by their SMILES. Calls of active or inactive are those of the source.

Sequence of Paired box protein Pax-8 (Q06710 whole entry): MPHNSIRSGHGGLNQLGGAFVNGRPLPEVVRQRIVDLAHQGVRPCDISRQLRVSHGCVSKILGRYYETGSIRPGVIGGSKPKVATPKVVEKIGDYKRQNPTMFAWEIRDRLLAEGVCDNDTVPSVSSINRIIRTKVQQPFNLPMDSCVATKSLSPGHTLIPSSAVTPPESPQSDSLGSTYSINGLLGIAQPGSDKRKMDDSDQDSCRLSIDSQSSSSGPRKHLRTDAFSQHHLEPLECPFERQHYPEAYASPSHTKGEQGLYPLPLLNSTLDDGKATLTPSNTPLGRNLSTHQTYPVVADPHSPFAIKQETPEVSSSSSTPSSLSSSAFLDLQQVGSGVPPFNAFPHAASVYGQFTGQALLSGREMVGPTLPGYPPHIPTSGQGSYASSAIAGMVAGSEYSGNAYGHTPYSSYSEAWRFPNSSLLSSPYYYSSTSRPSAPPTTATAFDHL
Sequence of Disintegrin and metalloproteinase domain-containing protein 17 (P78536 whole entry, the tested form may be a part): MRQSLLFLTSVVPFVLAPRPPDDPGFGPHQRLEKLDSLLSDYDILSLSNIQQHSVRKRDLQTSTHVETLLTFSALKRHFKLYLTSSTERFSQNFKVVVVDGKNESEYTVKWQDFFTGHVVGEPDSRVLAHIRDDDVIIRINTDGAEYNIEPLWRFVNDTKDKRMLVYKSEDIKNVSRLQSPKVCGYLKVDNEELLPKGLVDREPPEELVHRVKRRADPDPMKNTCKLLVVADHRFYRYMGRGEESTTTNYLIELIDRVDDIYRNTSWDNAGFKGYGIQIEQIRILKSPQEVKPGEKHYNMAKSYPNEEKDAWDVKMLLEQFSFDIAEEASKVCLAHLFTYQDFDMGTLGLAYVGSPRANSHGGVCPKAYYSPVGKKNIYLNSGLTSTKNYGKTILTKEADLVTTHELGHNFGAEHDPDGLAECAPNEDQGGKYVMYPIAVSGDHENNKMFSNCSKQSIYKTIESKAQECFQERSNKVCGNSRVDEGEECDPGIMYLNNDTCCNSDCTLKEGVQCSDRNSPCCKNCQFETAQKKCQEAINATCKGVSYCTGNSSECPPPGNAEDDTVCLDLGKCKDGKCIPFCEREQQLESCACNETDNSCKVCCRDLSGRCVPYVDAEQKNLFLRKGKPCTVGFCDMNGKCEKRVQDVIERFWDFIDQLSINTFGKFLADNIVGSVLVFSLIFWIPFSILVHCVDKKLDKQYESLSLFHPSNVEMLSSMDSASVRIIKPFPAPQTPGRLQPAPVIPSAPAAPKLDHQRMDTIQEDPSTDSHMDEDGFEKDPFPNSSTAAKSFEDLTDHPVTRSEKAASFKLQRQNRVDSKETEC
Sequence of FAD-linked sulfhydryl oxidase ALR (P55789 whole entry): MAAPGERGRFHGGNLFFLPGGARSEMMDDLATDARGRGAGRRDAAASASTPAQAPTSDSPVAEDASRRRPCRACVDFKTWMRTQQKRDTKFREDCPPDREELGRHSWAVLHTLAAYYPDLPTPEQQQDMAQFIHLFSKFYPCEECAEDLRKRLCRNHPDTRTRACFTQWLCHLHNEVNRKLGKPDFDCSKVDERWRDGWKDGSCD
Sequence of Photoreceptor-specific nuclear receptor (Q9Y5X4 whole entry): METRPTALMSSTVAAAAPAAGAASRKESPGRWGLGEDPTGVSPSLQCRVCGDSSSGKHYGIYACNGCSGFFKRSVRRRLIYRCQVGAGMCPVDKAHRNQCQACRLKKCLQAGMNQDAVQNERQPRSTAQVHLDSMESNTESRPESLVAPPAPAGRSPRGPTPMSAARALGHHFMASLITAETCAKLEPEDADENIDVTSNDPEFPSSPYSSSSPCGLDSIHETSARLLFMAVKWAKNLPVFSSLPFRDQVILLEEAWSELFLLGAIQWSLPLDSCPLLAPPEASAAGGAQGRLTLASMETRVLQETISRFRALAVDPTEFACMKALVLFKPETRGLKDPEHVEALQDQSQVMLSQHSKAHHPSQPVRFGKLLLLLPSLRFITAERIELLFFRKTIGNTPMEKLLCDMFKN

As to `CC(=O)Nc1ccc(S(=O)(=O)N2CCN=C2SCc2ccc([N+](=O)[O-])cc2)cc1`, the AC50 in assay [1] was 0.252 µM (active). Further, in assay [2], the IC50 is 2.82 µM (active).
Turning to `Cc1ccc(SCCC(=O)N/N=C/c2cccnc2)cc1`, the IC50 was 25.9 µM (inactive) in [3], 29.2 µM (inactive) in [4] and 83.3 µM (inactive) in assay [5].
In the case of `CC(C)Nc1nc(NC(C)C)nc(N(C#N)CCOc2ccc(Cl)cc2Cl)n1`, the EC50 is 1.4 µM (active) in assay [6] and > 60 µM (not active) in assay [7]. Further, the IC50 in assay [8] was 13.5 µM (inactive); in [9], > 69.5 µM (inactive).
Turning to `CO[C@H]1CN(C)C(=O)c2ccc(NC(=O)C3CC3)cc2OC[C@H](C)N(Cc2cc(F)ccc2F)C[C@@H]1C`, the AC50 in assay [10] is 0.668 µM (active); in assay [11], 1.5 µM (active); in assay [12], 0.851 µM (active); in assay [13], 59.9 µM (active).
For `Cc1ccc(NCc2nc3ccccc3n2C)cc1`, the IC50 in [14] was > 67.5 µM (inactive). Moreover, the EC50 in assay [15] was > 67.5 µM (inactive).
As for `O=C(NNC(=O)c1cc(-c2ccc(Cl)cc2Cl)nc2ccccc12)Nc1ccccc1`, the IC50 is 1.28 µM (active) in assay [3], 2.74 µM (active) in [4] and 42.2 µM (inactive) in assay [5]. Also, the values for the EC50 in assay [16], in [17] and in assay [18] were 20.4 µM (active), 5.3 µM (active) and 8.55 µM (active), respectively. Besides, in [19], the CC50 is 16.9 µM (active).
Consider `COc1ccc2c3c(n(C)c2c1)[C@H](CO)N(C(=O)Nc1ccc(F)cc1)CC31CCN(C(=O)c2ccc3c(c2)OCO3)CC1`, for which the AC50 in assay [20] is 6.51 µM (active); in [21], > 100 µM (inactive); in assay [22] it was 0.75 µM (active); in assay [23] it was 1.79 µM (active); in assay [24] it was 4.33 µM (active); in [25], 28.6 µM (active). For the same molecule, the AC50 was 57.7 µM (active) in assay [26], 1.2 µM (active) in [27], 0.892 µM (active) in assay [28] and 22.5 µM (active) in assay [29].
Regarding `COC(=O)c1ccccc1NC(=O)NCc1ccncc1`, in [14], the IC50 is > 67.5 µM (inactive). The EC50 in [15] was > 67.5 µM (inactive).

The values are drawn from ChEMBL document CHEMBL1201862, “PubChem BioAssay data set” (2004).
